In patent US20180221336A1, “DOSE SPARING KETOROLAC FORMULATIONS AND METHODS AND DEVICES FOR USE WITH SAME” (SteadyMed, Ltd., priority 2017, published 2018):
Where two headings read alike, the source gives them in different places.

Tests used:
[1] = Simulation of plasma Ketorolac concentrations with the MMSPK population pharmacokinetic model (NONMEM); design: species or system human; conditions: population PK model parameter estimate
Description: A modified version of the Mandema-Stanski published model for Ketorolac (termed the Modified Mandema-Stanski PK model, or the MMSPK Model) was developed in steps; a base model development step for description of structural components of the model followed by a covariate analysis. For the latter the base model output was used to conduct a graphical evaluation of the covariates at first. A full model including all relevant covariate effects (e.g. each covariate-parameter relationship which was significant during single covariate model testing was included in the full model) was then developed. A final model was chosen by retaining only the statistically significant covariate effects. The parameters in the population models were estimated using the NONMEM software program (version 7.3). The stochastic approximation estimation method (SAEM) was used for estimation. A visual predictive check (VPC) was conducted for the model using all data.
Simulations: Once the model was qualified, stochastic simulations were conducted to assess the expected range of concentrations following several dose regimens. […]
For each simulation scenario 800 subjects were simulated. […] The simulation outputs were assessed graphically and summaries of key metrics (see Table 1) were summarized and tabled. […]

clinical = conditions: human, plasma
Protocol: (§1) Twelve (12) subjects were randomized to receive a total daily dose of 120 mg Ketorolac tromethamine (Ketorolac Tromethamine Injection, USP 30 mg/mL, manufactured by Hospira Inc., Lot No.: 51600LL) administered as either: (Treatment A) one continuous SC infusion of 4 mL to the abdomen over 24 hours at a steady rate of 5 mg/hr (0.167 mL/hr), or (Treatment B) four IM bolus injections of 30 mg (1 mL) to alternating gluteus maximus muscle every 6 hours. […] The treatments were separated by a washout period of ≥4 days. The total daily dose of 120 mg Ketorolac tromethamine administered as 4×30 mg/mL IM bolus injections is a recommended treatment for subjects under 65 years of age according to the product labeling.
(§2) Blood samples for the determination of plasma Ketorolac following continuous SC infusion (Treatment A) were collected at the following time points: pre-dose (0 hour), 0.25, 0.5, 1, 1.5, 2, 4, 6, 8, 10, 12, 14, 16, 18, 20, 22, 23, 24 (2 blood samples were collected at the 24 hour time point; 1 immediately prior to the end of infusion and 1 immediately following end of infusion), 24.167, 24.33, 24.5, 25, 26, 28, 30, 32, 36, and at 48 hours post-dose. The time for post-dose blood collection are expressed relative to the start of infusion.
(§3) Blood samples for the determination of plasma Ketorolac following IM injections (Treatment B) were collected at the following time points: pre-dose (0 hour), 0.167, 0.25, 0.5, 0.75, 1, 1.25, 1.5, 2, 3, 4, 6 (pre-dose), 6.25, 6.5, 6.75, 7, 8, 10, 12 (pre-dose), 12.25, 12.75, 13, 14, 16, 18 (pre-dose), 18.25, 18.5, 18.75, 19, 20, 22, 24, 28, 32, and at 48 hours post-dose. The time for post-dose blood collection are expressed relative to the first IM injection.
(§4) Ketorolac plasma concentrations were determined using a validated liquid chromatographic tandem mass spectrometry (LC-MS/MS) method, with a lower limit of quantitation (LLOQ) of 10.0 ng/mL9. The validated plasma Ketorolac concentration range was 10.0 to 5000 ng/mL. Assay performance was monitored using quality control (QC) samples at concentrations of 30.0 ng/mL, 200 ng/mL, and 3800 ng/mL; the % CV for the QCs ranged from 1.3% to 15.1% and accuracy was 91.6-102.5%.
(§5) Non-compartmental PK parameters were calculated from Ketorolac concentrations-time data in plasma using Phoenix® WinNonlin® Professional (Versions 6.3; Pharsight, Mountain View, Calif.). […] AUC0-inf was calculated as the sum AUC0-last plus the ratio of the last measurable plasma concentration (Clast) to kel; AUC0-last, AUC0-24, and AUCtau were calculated by the linear trapezoidal summation method; AUCext was calculated as 1-AUC0-last/AUC0-inf multiplied by 100, Cmax, Ctrough, tmax were reported as observed values; Cavg was calculated as AUCtau divided by 6 hours for the IM administration; Css was calculated as the average of the concentrations from the time steady-state was reached until the end of SC infusion; CL/F was calculated as dose/AUC0-inf (for SC administration) or dose/AUCtau (for IM administration); Vz/F was calculated as (CL/F)/kel); kel was calculated by linear least-square regression analysis using the maximum number of points in the terminal log-linear phase (using 3 or more non-zero plasma concentrations); t½ was calculated as ln(2)/kel.
(§6) Statistical analyses were conducted to compare Ketorolac AUC0 24, AUC0 last, and Cmax following continuous SC infusion and repeat IM bolus injections. A SAS® mixed model procedure was performed on the natural log (ln)-transformed PK parameters.

[2] = oral KT; literature value used in simulations; cited from earlier work
[3] = for plasma Ketorolac concentration (predose Ctrough), Geometric LSM: Treatment B four IM bolus injections every 6 hours
Protocol: as §1, §2, §3, §4, §5, §6

[4] = Safety assessments (adverse events, vital signs, ECG, injection/infusion site) in the crossover study in healthy subjects
Protocol: Twelve (12) subjects were randomized to receive a total daily dose of 120 mg Ketorolac tromethamine (Ketorolac Tromethamine Injection, USP 30 mg/mL, manufactured by Hospira Inc., Lot No.: 51600LL) administered as either: (Treatment A) one continuous SC infusion of 4 mL to the abdomen over 24 hours at a steady rate of 5 mg/hr (0.167 mL/hr), or (Treatment B) four IM bolus injections of 30 mg (1 mL) to alternating gluteus maximus muscle every 6 hours. For the continuous SC infusion, the MedFusion 3500 syringe pump was assembled with Animas Inset Infusion Set 23 inch 6 mm 10/box Grey (100-182-00), B-D Luer-Lok Syringe 5 mL and B-D 20 G 1 inch needle (Becton Dickinson). The treatments were separated by a washout period of ≥4 days.
All subjects underwent pre-dose (each period) and post-study assessments including physical examinations, routine laboratory tests, vital signs, and 12-lead electrocardiograms (ECGs). Alcohol and drug screen were conducted before each dosing period. All subjects were between 19 and 55 years old with a body mass index (BMI) between 18.5 and 30.0 kg/m2. Subjects had to refrain from the use of any prescription medications including over-the-counter products, herbal products or vitamin supplement within 14 days of dosing.

[5] = Treatment A (Test, N = 11): continuous SC infusion over 24 hours
[6] = Treatment A versus Treatment B, 100 * (test/reference)
[7] = Treatment A: 120 mg continuous SC infusion over 24 hours, N = 11, geom. mean (geom. CV %)
[8] = Treatment A: 120 mg continuous SC infusion over 24 hours, N = 11, mean ± SD
[9] = Treatment A, individual spline (quadratic plateau) regression, N 11
[10] = Treatment A, individual spline (quadratic plateau) regression, N 11, listed as Ketorolac tromethamine
[11] = Treatment B (Reference, N = 12): four IM bolus injections of 30 mg every 6 hours

## O=C(c1ccccc1)c1ccc2n1CCC2C(=O)O (racemic) [Ketorolac, (±)-5-benzoyl-2,3-dihydro-1H-pyrrolizine-1-carboxylic acid, compound with 2-amino-2-(hydroxymethyl)-1,3-propanediol]
[1]
  CL estimate (MMSPK model): 2.92 L/h
  estimated Ka for IM absorption (MMSPK model): 11.6 h⁻¹
clinical; 120 mg
  half-life: ~7 h
clinical; im, 30 mg
  AUC: 6810 ng·h/mL
  AUC(0-t): 23600 ng·h/mL
  Cmax: 2240 ng/mL
  Tmax: 9.25 h
  Vd/F: 30.3 ± 7.69 L
  half-life: 7.02 ± 1.44 h
clinical; sc, 120 mg
  AUC(0-inf): 29100 ng·h/mL
  AUC(0-t): 21500 ng·h/mL
  Cmax: 1340 ng/mL
  Tmax: 23 h
  Vd/F: 29.1 ± 10.9 L
  concentration at 4 h: 617 ng/mL
  concentration at 6 h: 718 ng/mL
  concentration at 8 h: 838 ng/mL
  concentration at 10 h: 894 ng/mL
  concentration at 12 h: 946 ng/mL
  concentration at 14 h: 1020 ng/mL
  concentration at 16 h: 1050 ng/mL
  concentration at 18 h: 1160 ng/mL
  concentration at 20 h: 1210 ng/mL
  concentration at 22 h: 1200 ng/mL
  concentration at 23 h: 1230 ng/mL
  concentration at 24 h: 1170 ng/mL
  half-life: 6.93 ± 0.84 h
[2]
  Ka: 11 h⁻¹
  absorption lag time: 0.2 h
[3]; [5]
  AUC0-24 Geometric LSM: 21510 ng·h/mL
  AUC0-last Geometric LSM: 28260 ng·h/mL
[3]; Treatment A SC infusion, Helmert contrast
  overall Tss (time to steady-state): 18 h
[3]; Treatment A versus Treatment B
  overall exposure (AUC0-24 and AUC0-last), SC infusion compared with IM bolus injections: similar
[3]; Treatment A versus Treatment B, 120 mg total daily dose
  Cmax lower following continuous SC infusion compared to 4 IM bolus injections: 40%
[3]; [6]
  AUC0-24 Geometric Mean Ratio: 91.23%
  AUC0-last Geometric Mean Ratio: 101.53%
  Cmax—all Geometric Mean Ratio: 59.86%
[3]; [7]
  AUC0-last: 28.48 (30.9) μg * hr/mL
  Cmax—all: 1.344 (25.6) μg/mL
[3]; [8]
  AUC%extrap: 1.96 ± 1.2860%
  Css: 1238 ± 299.6 ng/mL
[3]; Treatment A: 120 mg continuous SC infusion over 24 hours, mean ± SD
  Kel: 0.1014 ± 0.01213 h⁻¹
[3]; Treatment A: 120 mg continuous SC infusion over 24 hours, mean ± SD, listed as Ketorolac tromethamine
  CL/F: 2.924 ± 0.9799 L/h
[3]; [9]
  Plateau Concentration, Mean (SD): 1053 (234.5) ng/mL
  Plateau Concentration, Median (Min, Max): 1084 ng/mL
  Time to Steady-State, Mean (SD): 6.30 (4.17) hr
  Time to Steady-State, Median (Min, Max): 4 h
[3]; [10]
  Plateau Concentration, Median (Min, Max): 1084 (572.4, 1426) ng/mL
  Time to Steady-State, Median (Min, Max): 3.68 (1.98, 13.63) hr
[3]; [11]
  AUC0-24 Geometric LSM: 23580 ng·h/mL
  AUC0-last Geometric LSM: 27830 ng·h/mL
[3]; Hour 6
  plasma Ketorolac concentration (predose Ctrough), Geometric LSM: 302.545
[3]; Hour 12
  plasma Ketorolac concentration (predose Ctrough), Geometric LSM: 368.216
[3]; Hour 18
  plasma Ketorolac concentration (predose Ctrough), Geometric LSM: 432.393
[3]; Hour 24
  plasma Ketorolac concentration (predose Ctrough), Geometric LSM: 564.178
[3]; following IM injections (Treatment B)
  Ctrough (LSM) at the highest: 564.2 ng/mL
[3]; following SC infusion (Treatment A)
  Individual Tss (spline method), range: 2.0 to 14 h
[3]; following SC infusion (Treatment A), Helmert contrast
  geometric LSM Css: 1160 ng/mL
[4]; Treatment A, 13 minutes following completion of the 24-hour infusion, resolved in approximately 2 days, possibly related to study drug
  infusion site adverse event: One subject experienced mild infusion site pain
[4]; Treatment B, approximately 6.5 hours after the 4th IM injection, resolved in 15 days, not related to study drug
  injection site adverse event: Another subject experienced mild injection site hemorrhage
[4]; each of Treatment A and Treatment B
  subjects experiencing TEAEs following each treatment arm: 2 subjects
[4]; total dose of 120 mg via continuous SC infusion
  safety and tolerability: safe and well tolerated
[4]; whole study
  vital sign, ECG, or injection/infusion site reaction results: no clinically significant trends
[4]; whole study, 12 subjects
  subjects experiencing TEAEs: 4 (33%) subjects
[4]; whole study, both treatments
  deaths or serious adverse events (SAEs): no deaths or serious adverse events (SAEs)
  number of mild treatment emergent adverse events (TEAEs): 7
